Source: patent US10017504B2, “Piperidine isoxazole and isothiazole orexin receptor antagonists” (MERCK SHARP & DOHME CORP., priority 2014, dated 2018)

These compounds were tested against human orexin-2 receptor (Homo sapiens (Human), UniProt O43614) (assay: FLIPR Ca2+ Flux Assay, orexin-2 receptor). Conditions: CHO cells expressing the human orexin-2 receptor; agonist 70 pM Ala-6,12 human orexin-A; read-out: hOX2 FLIPR IC50.
Type: cell-based
Procedure: In a typical experiment the OX1 and OX2 receptor antagonistic activity of the compounds of the present invention was determined in accordance with the following experimental method. For intracellular calcium measurements, Chinese hamster ovary (CHO) cells expressing the rat orexin-1 receptor or the human orexin-2 receptor, are grown in Iscove's modified DMEM containing 2 mM L-glutamine, […], 1% hypoxanthine-thymidine supplement, 100 U/ml penicillin, 100 μg/ml streptomycin and 10% heat-inactivated fetal calf serum (FCS). The cells are seeded at 20,000 cells/well into Becton-Dickinson black 384-well clear bottom sterile plates coated with poly-D-lysine. All reagents are from GIBCO-Invitrogen Corp. The seeded plates are incubated overnight at 37° C. and 5% CO2. Ala-6,12 human orexin-A as the agonist is prepared as a 1 mM stock solution in 1% bovine serum albumin (BSA) and diluted in assay buffer (HBSS containing 20 mM HEPES, 0.1% BSA and 2.5 mM probenecid, pH7.4) for use in the assay at a final concentration of 70 pM. Test compounds are prepared as 10 mM stock solution in DMSO, then diluted in 384-well plates, first in DMSO, then assay buffer. On the day of the assay, cells are washed 3 times with 100 μl assay buffer and then incubated for 60 min (37° C., 5% CO2) in 60 μl assay buffer containing 1 μM Fluo-4AM ester, 0.02% pluronic acid, and 1% BSA. The dye loading solution is then aspirated and cells are washed 3 times with 100 μl assay buffer. 30 μl of that same buffer is left in each well. Within the Fluorescent Imaging Plate Reader (FLIPR, Molecular Devices), test compounds are added to the plate in a volume of 25 μl, incubated for 5 min and finally 25 μl of agonist is added. Fluorescence is measured for each well at 1 second intervals for 5 minutes and the height of each fluorescence peak is compared to the height of the fluorescence peak induced by 70 pM Ala-6,12 orexin-A with buffer in place of antagonist. […] The intrinsic orexin receptor antagonist activity of a compound which may be used in the present invention may be determined by these assays.

Sequence of human orexin-2 receptor (O43614 whole entry): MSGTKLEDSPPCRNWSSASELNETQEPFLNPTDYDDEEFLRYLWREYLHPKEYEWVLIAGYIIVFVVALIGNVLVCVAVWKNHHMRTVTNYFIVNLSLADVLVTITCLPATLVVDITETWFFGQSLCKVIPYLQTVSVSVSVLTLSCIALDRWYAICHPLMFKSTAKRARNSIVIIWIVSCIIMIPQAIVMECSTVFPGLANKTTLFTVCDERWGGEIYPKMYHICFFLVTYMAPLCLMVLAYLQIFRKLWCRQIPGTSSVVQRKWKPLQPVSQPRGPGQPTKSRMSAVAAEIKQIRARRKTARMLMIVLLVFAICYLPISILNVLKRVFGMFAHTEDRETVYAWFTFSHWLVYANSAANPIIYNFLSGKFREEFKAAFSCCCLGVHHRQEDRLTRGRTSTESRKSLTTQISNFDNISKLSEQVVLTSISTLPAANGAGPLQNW

**Q.** With `C[C@@H]1CC[C@@H](c2cc(C(C)(O)C3CC3)no2)CN1C(=O)c1ccccc1-n1nccn1` (single isomer, unassigned) [Example 53] as the compound, how does the IC50 read?
**A.** Its IC50 is 34.3 nM.

**Q.** How did the IC50 turn out when `C[C@@H]1CC[C@@H](c2cc(C(C)(C)O)sn2)CN1C(=O)c1ccccc1C1(C#N)CC1` [Example 62, 1-[2-({(2R,5R)-5-[5-(1-Hydroxy-1-methylethyl)isothiazol-3-yl]-2-methylpiperidin-1-yl}carbonyl)phenyl]cyclopropanecarbonitrile] was run?
**A.** Its IC50 is 19.1 nM.

**Q.** `C[C@@H]1CC[C@@H](c2cc(C(C)(C)O)no2)CN1C(=O)c1ccccc1-n1ncnn1` [Example 32, 2-{5-[(3R,6R)-6-Methyl-1-{[2-(2H-tetrazol-2-yl)phenyl]carbonyl}piperidin-3-yl]isoxazol-3-yl}propan-2-ol] was tested. Which IC50 did it give?
**A.** Its IC50 is 124 nM.

**Q.** For `C[C@@H]1CC[C@@H](c2cc([C@H](O)C(F)(F)F)no2)CN1C(=O)c1ccccc1C1(C#N)CC1` [Example 45, 1-(2-{[(2R,5R)-2-Methyl-5-{3-[(1S)-2,2,2-trifluoro-1-hydroxyethyl]isoxazol-5-yl}piperidin-1-yl]carbonyl}phenyl)cyclopropanecarbonitrile], which IC50 is on record?
**A.** The IC50 was 41.2 nM.

**Q.** `CC(C)Oc1ncccc1C(=O)N1C[C@H](c2cc(C(C)(C)O)on2)CC[C@H]1C` [Example 6, ((2R,5R)-5-(5-(2-Hydroxypropan-2-yl)isoxazol-3-yl)-2-methylpiperidin-1-yl)(2-isopropoxypyridin-3-yl)methanone] was tested. Which IC50 did it give?
**A.** The IC50 was 1840 nM.

**Q.** Which IC50 does the source give for `C[C@@H]1CC[C@@H](c2cc(C(C)(C)O)on2)CN1C(=O)c1cccnc1OCC(F)(F)F` [Example 7, ((2R,5R)-5-(5-(2-Hydroxypropan-2-yl)isoxazol-3-yl)-2-methylpiperidin-1-yl)(2-(2,2,2-trifluoroethoxy)pyridin-3-yl)methanone] here?
**A.** The IC50 was 227 nM.

**Q.** How did the IC50 turn out when `CCOc1ncccc1C(=O)N1C[C@H](c2cc(C(C)(C)O)no2)CC[C@H]1C` [Example 23, 2-(5-{(3R,6R)-1-[(2-Ethoxypyridin-3-yl)carbonyl]-6-methylpiperidin-3-yl}isoxazol-3-yl)propan-2-ol] was run?
**A.** Its IC50 is 268 nM.

**Q.** For `C[C@@H]1CC[C@@H](c2cc(C(C)(C)O)no2)CN1C(=O)c1cccnc1-c1ccccc1` [Example 33, 2-(5-{(3R,6R)-6-Methyl-1-[(2-phenylpyridin-3-yl)carbonyl]piperidin-3-yl}isoxazol-3-yl)propan-2-ol], which IC50 is on record?
**A.** Its IC50 is 134 nM.

**Q.** Which IC50 does the source give for `C[C@@H]1CC[C@@H](c2cc([C@H](O)C(F)(F)F)no2)CN1C(=O)c1ccccc1-n1ncnn1` [Example 47, (1S)-2,2,2-Trifluoro-1-{5-[(3R,6R)-6-methyl-1-{[2-(2H-tetrazol-2-yl)phenyl]carbonyl}piperidin-3-yl]isoxazol-3-yl}ethanol] here?
**A.** Its IC50 is 328 nM.

**Q.** Which IC50 does the source give for `C[C@@H]1CC[C@@H](c2cc(C3CCCO3)no2)CN1C(=O)c1ccccc1-n1nccn1` (stereo partly drawn) [Example 56, (2R,5R)-2-Methyl-5-[3-(tetrahydrofuran-2-yl)isoxazol-5-yl]-1-{[2-(2H-1,2,3-triazol-2-yl)phenyl]carbonyl}piperidine] here?
**A.** The IC50 was 311 nM.

**Q.** How did the IC50 turn out when `CC(C)C(C)(O)c1cc([C@@H]2CC[C@@H](C)N(C(=O)c3ccccc3-n3nccn3)C2)no1` (single isomer, unassigned) [Example 17] was run?
**A.** The IC50 was 24.5 nM.

**Q.** With `CC[C@@](C)(O)c1cc([C@@H]2CC[C@@H](C)N(C(=O)c3ccccc3-n3nccn3)C2)no1` [Example 11, (2-(2H-1,2,3-Triazol-2-yl)phenyl)((2R,5R)-5-(5-((R)-2-hydroxybutan-2-yl)isoxazol-3-yl)-2-methylpiperidin-1-yl)methanone] as the compound, how does the IC50 read?
**A.** The IC50 was 41.4 nM.

**Q.** For `C[C@@H]1CC[C@@H](c2cc(C(C)(C)O)no2)CN1C(=O)c1ccccc1C1(C#N)CC1` [Example 29, 1-[2-({(2R,5R)-5-[3-(1-Hydroxy-1-methylethyl)isoxazol-5-yl]-2-methylpiperidin-1-yl}carbonyl)phenyl]cyclopropanecarbonitrile], which IC50 is on record?
**A.** The IC50 was 8.8 nM.

**Q.** With `CCC(C)(O)c1cc([C@@H]2CC[C@@H](C)N(C(=O)c3ccccc3-n3nccn3)C2)on1` (stereo partly drawn) [Example 54, 2-{5-[(3R,6R)-6-Methyl-1-{[2-(2H-1,2,3-triazol-2-yl)phenyl]carbonyl}piperidin-3-yl]isoxazol-3-yl}butan-2-ol] as the compound, how does the IC50 read?
**A.** Its IC50 is 76.1 nM.

**Q.** `CCOc1ccccc1C(=O)N1C[C@H](c2cc(C(C)(C)O)no2)CC[C@H]1C` [Example 31, 2-(5-{(3R,6R)-1-[(2-Ethoxyphenyl)carbonyl]-6-methylpiperidin-3-yl}isoxazol-3-yl)propan-2-ol] was tested. Which IC50 did it give?
**A.** The IC50 was 178 nM.

**Q.** How did the IC50 turn out when `C[C@@H]1CC[C@@H](c2cc(C(C)(C)O)sn2)CN1C(=O)c1ccccc1-n1ncnn1` [Example 60, 2-{3-[(3R,6R)-6-Methyl-1-{[2-(2H-tetrazol-2-yl)phenyl]carbonyl}piperidin-3-yl]isothiazol-5-yl}propan-2-ol] was run?
**A.** Its IC50 is 63.8 nM.

**Q.** Which IC50 does the source give for `C[C@@H]1CC[C@@H](c2cc(C(C)(C)O)sn2)CN1C(=O)c1cscc1-n1nccn1` [Example 66, 2-{3-[(3R,6R)-6-Methyl-1-{[4-(2H-1,2,3-triazol-2-yl)thiophen-3-yl]carbonyl}piperidin-3-yl]isothiazol-5-yl}propan-2-ol] here?
**A.** The IC50 was 21.1 nM.

**Q.** `C[C@@H]1CC[C@@H](c2cc(C(C)(C)O)no2)CN1C(=O)c1ccccc1-c1ncccn1` [Example 22, 2-(5-{(3R,6R)-6-Methyl-1-[(2-pyrimidin-2-ylphenyl)carbonyl]piperidin-3-yl}isoxazol-3-yl)propan-2-ol] was tested. Which IC50 did it give?
**A.** Its IC50 is 51.4 nM.

**Q.** With `C[C@@H]1CC[C@@H](c2cc([C@@H](O)C(F)(F)F)no2)CN1C(=O)c1ccccc1-n1nccn1` [Example 40, (1R)-2,2,2-Trifluoro-1-{5-[(3R,6R)-6-methyl-1-{[2-(2H-1,2,3-triazol-2-yl)phenyl]carbonyl}piperidin-3-yl]isoxazol-3-yl}ethanol] as the compound, how does the IC50 read?
**A.** Its IC50 is 11 nM.

**Q.** `C[C@@H]1CC[C@@H](c2cc(C(C)(C)O)on2)CN1C(=O)c1ccccc1C1(C#N)CC1` [Example 2, 1-(2-((2R,5R)-5-(5-(2-Hydroxypropan-2-yl)isoxazol-3-yl)-2-methylpiperidine-1-carbonyl)phenyl)cyclopropanecarbonitrile] was tested. Which IC50 did it give?
**A.** The IC50 was 104 nM.

**Q.** `C[C@@H]1CC[C@@H](c2cc(C(C)(O)C3CC3)no2)CN1C(=O)c1ccccc1-n1nccn1` (single isomer, unassigned) [Example 52] was tested. Which IC50 did it give?
**A.** Its IC50 is 47.3 nM.

**Q.** Which IC50 does the source give for `C[C@@H]1CC[C@@H](c2cc([C@H](O)C(F)(F)F)no2)CN1C(=O)c1ccccc1-c1ncccn1` [Example 51, (1S)-2,2,2-trifluoro-1-(5-{(3R,6R)-6-methyl-1-[(2-pyrimidin-2-ylphenyl)carbonyl]piperidin-3-yl}isoxazol-3-yl)ethanol] here?
**A.** Its IC50 is 146 nM.

**Q.** With `C[C@@H]1CC[C@@H](c2cc(C(C)(C)O)sn2)CN1C(=O)c1cccnc1OCC(F)F` [Example 69, 2-{3-[(3R,6R)-1-{[2-(2,2-Difluoroethoxy)pyridin-3-yl]carbonyl}-6-methylpiperidin-3-yl]isothiazol-5-yl}propan-2-ol] as the compound, how does the IC50 read?
**A.** Its IC50 is 42.8 nM.

**Q.** Which IC50 does the source give for `C[C@@H]1CC[C@@H](c2cc(C3(O)CCC3)on2)CN1C(=O)c1ccccc1-n1nccn1` [Example 13, 1-{3-[(3R,6R)-6-Methyl-1-{[2-(2H-1,2,3-triazol-2-yl)phenyl]carbonyl}piperidin-3-yl]isoxazol-5-yl}cyclobutanol] here?
**A.** The IC50 was 635 nM.

**Q.** With `CCOc1ccccc1C(=O)N1C[C@H](c2cc(C(C)(C)O)on2)CC[C@H]1C` [Example 5, (2-Ethoxyphenyl)((2R,5R)-5-(5-(2-hydroxypropan-2-yl)isoxazol-3-yl)-2-methylpiperidin-1-yl)methanone] as the compound, how does the IC50 read?
**A.** Its IC50 is 1190 nM.

**Q.** `C[C@@H]1CC[C@@H](c2cc(C(C)(C)O)sn2)CN1C(=O)c1ccccc1OC(F)(F)F` [Example 68, 2-{3-[(3R,6R)-6-Methyl-1-{[2-(trifluoromethoxy)phenyl]carbonyl}piperidin-3-yl]isothiazol-5-yl}propan-2-ol] was tested. Which IC50 did it give?
**A.** The IC50 was 22.8 nM.

**Q.** For `CC(C)C(C)(O)c1cc([C@@H]2CC[C@@H](C)N(C(=O)c3ccccc3-n3nccn3)C2)no1` (single isomer, unassigned) [Example 16], which IC50 is on record?
**A.** Its IC50 is 24.3 nM.

**Q.** With `C[C@@H]1CC[C@@H](c2cc(C(C)(C)O)no2)CN1C(=O)c1ccccc1-c1cnccn1` [Example 37, 2-(5-{(3R,6R)-6-Methyl-1-[(2-pyrazin-2-ylphenyl)carbonyl]piperidin-3-yl}isoxazol-3-yl)propan-2-ol] as the compound, how does the IC50 read?
**A.** Its IC50 is 1030 nM.

**Q.** Which IC50 does the source give for `C[C@@H]1CC[C@@H](c2cc(C(C)(C)O)sn2)CN1C(=O)c1ccc(F)cc1-n1nccn1` [Example 61, 2-{3-[(3R,6R)-1-{[4-Fluoro-2-(2H-1,2,3-triazol-2-yl)phenyl]carbonyl}-6-methylpiperidin-3-yl]isothiazol-5-yl}propan-2-ol] here?
**A.** Its IC50 is 18.6 nM.

**Q.** How did the IC50 turn out when `C[C@@H]1CC[C@@H](c2cc([C@@H](O)C(F)(F)F)no2)CN1C(=O)c1ccccc1C1(C#N)CC1` [Example 44, 1-(2-{[(2R,5R)-2-Methyl-5-{3-[(1R)-2,2,2-Trifluoro-1-hydroxyethyl]isoxazol-5-yl}piperidin-1-yl]carbonyl}phenyl)cyclopropanecarbonitrile] was run?
**A.** Its IC50 is 26.8 nM.
